SMILES strings stand for the structures.

Common to all, as to type: cell-based
One experiment concerns the target T1, human TLR9 (Homo sapiens, UniProt Q9NR96).
T1 construct: host or cells: HEK-Blue cells
T1 sequence (Q9NR96 26-1032): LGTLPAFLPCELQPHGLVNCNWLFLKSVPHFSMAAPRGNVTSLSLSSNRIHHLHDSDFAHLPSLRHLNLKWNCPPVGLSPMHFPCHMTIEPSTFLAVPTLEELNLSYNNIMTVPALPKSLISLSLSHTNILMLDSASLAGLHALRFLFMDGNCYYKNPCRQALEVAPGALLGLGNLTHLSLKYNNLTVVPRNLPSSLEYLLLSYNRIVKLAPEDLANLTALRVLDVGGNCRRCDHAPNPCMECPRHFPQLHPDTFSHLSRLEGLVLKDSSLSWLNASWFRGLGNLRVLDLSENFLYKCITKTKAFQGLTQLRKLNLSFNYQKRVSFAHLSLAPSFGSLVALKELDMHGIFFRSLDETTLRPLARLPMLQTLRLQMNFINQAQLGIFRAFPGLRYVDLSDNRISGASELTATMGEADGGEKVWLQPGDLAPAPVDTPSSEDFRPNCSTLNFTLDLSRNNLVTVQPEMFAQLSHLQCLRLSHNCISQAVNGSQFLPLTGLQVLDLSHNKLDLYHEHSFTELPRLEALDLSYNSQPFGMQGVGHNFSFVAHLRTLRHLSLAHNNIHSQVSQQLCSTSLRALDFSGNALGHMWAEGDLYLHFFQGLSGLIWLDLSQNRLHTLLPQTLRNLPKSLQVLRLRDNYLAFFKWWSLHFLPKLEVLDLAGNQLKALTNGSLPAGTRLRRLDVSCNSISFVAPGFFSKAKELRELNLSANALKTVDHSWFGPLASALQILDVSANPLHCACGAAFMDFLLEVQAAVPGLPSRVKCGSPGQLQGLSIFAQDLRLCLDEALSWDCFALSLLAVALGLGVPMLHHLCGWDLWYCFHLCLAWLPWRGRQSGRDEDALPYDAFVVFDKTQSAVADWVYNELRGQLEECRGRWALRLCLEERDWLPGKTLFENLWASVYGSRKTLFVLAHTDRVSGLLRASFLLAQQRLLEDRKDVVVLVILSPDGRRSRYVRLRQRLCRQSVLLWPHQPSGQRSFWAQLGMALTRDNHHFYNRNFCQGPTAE
Kind of experiment: TLR9 inhibition reporter assay (HEK-Blue cells, SEAP reporter, ODN2006 stimulation). The conditions noted are these: HEK-Blue cells overexpressing human TLR9, SEAP reporter, ODN2006 5 nM. A digest of the protocol: (§1)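 HEK-Blue cells overexpressing human TLR7, TLR8 or TLR9 carry a SEAP reporter driven by NF-κB/AP-1 sites. Compounds (0.05 nM–50 μM) were preincubated 30 min at room temperature, then cells were stimulated with gardiquimod 7.5 μM (TLR7), R848 15.9 μM (TLR8) or ODN2006 5 nM (TLR9) for 22 h at 37 °C.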
A general note: In a reporter assay the amount or activity of a reporter protein is the signal.

Another experiment deals with T2, human TLR8 (Homo sapiens, UniProt Q9NR97).
T2 construct: host or cells: HEK-Blue cells
T2 sequence (Q9NR97 27-1041): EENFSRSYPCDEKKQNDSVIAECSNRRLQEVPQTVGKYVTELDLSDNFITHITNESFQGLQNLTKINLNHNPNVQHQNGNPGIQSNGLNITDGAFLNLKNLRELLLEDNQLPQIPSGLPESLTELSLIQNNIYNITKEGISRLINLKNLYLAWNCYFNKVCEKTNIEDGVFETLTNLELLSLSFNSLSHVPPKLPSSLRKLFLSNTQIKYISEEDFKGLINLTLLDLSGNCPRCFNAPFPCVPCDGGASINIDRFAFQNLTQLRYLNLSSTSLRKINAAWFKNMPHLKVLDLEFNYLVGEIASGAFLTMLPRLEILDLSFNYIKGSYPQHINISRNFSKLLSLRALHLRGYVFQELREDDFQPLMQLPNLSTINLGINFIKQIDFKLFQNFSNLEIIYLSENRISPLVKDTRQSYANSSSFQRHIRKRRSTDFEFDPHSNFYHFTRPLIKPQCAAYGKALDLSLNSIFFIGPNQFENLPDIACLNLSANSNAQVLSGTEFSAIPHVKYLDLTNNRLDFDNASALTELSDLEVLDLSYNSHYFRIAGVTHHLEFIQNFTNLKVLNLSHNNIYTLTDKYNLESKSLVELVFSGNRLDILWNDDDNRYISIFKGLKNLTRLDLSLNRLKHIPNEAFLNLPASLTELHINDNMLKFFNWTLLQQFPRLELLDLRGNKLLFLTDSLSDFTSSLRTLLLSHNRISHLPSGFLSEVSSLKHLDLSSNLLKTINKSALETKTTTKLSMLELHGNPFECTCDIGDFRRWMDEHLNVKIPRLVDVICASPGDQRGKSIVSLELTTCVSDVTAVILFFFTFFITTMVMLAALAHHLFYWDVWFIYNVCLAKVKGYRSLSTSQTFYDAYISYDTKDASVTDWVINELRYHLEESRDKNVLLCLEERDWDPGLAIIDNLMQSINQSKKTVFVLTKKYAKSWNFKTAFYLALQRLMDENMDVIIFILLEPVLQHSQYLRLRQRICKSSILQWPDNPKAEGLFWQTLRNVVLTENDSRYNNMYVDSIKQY
The experiment in a line: TLR8 inhibition reporter assay (HEK-Blue cells, SEAP reporter, R848 stimulation). The note with it: HEK-Blue cells overexpressing human TLR8, SEAP reporter, R848 15.9 μM; read-out: TLR8 IC50. The essentials: as §1

Another experiment concerns the target T3, human TLR7 (Homo sapiens, UniProt Q9NYK1).
T3 construct: host or cells: HEK-Blue cells
T3 sequence (Q9NYK1 27-1049): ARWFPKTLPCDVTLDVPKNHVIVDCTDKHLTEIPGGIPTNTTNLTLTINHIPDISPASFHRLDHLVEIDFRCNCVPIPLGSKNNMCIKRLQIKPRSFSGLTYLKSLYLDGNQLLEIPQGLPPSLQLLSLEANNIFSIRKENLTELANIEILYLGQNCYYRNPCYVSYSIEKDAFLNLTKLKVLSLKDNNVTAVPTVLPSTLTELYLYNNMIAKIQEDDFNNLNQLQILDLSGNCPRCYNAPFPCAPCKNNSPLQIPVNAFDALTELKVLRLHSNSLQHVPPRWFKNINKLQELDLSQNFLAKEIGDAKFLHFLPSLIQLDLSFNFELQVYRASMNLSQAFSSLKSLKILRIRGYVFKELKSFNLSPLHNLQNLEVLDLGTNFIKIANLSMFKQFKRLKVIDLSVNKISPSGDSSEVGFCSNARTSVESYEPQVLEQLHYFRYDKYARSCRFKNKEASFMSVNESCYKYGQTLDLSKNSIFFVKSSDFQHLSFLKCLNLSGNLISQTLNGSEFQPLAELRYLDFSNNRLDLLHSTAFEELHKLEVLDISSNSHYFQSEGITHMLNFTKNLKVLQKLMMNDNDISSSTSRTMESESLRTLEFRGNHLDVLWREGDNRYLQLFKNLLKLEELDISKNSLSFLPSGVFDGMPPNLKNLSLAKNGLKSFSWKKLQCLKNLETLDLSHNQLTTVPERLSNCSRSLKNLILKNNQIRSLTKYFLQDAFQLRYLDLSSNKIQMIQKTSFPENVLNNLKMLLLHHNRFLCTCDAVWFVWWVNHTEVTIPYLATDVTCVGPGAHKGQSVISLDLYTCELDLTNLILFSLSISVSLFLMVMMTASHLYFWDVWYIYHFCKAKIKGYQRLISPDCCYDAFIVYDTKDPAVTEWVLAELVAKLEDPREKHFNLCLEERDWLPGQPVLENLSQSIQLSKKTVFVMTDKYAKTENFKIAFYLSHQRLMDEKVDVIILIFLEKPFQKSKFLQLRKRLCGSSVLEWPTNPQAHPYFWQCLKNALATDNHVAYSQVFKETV
Kind of experiment: TLR7 inhibition reporter assay (HEK-Blue cells, SEAP reporter, gardiquimod stimulation). The note with it: HEK-Blue cells overexpressing human TLR7, SEAP reporter, gardiquimod 7.5 μM; read-out: TLR7 IC50. A digest of the protocol: as §1

Turning to `Cc1c(-c2[nH]c3sc(N4CC5(CN(CCS(C)(=O)=O)C5)C4)nc3c2C(C)C)cn2ncnc2c1C` [Example 304, 5-(7,8-dimethyl-[1,2,4]triazolo[1,5-a]pyridin-6-yl)-6-isopropyl-2-(6-(2-(methylsulfonyl)ethyl)-2,6-diazaspiro[3.3]heptan-2-yl)-4H-pyrrolo[3,2-d]thiazole], the results for the IC50 at human TLR9, on human TLR8 and at human TLR7 were 35600 nM, 19.2 nM and 8.2 nM, respectively.

For the molecule `COc1cc(-c2[nH]c3sc(C4CCC(N5CCCC5)CC4)nc3c2C(C)C)cn2ncnc12` (single isomer, unassigned) [Example 99, 6-isopropyl-5-(8-methoxy-[1,2,4]triazolo[1,5-a]pyridin-6-yl)-2-(4-(pyrrolidin-1-yl)cyclohexyl)-4H-pyrrolo[3,2-d]thiazole], the 50% inhibitory concentration (IC50) against human TLR9 was found to be 3610 nM; at human TLR8, 36.7 nM; at human TLR7, 1.19 nM.

Take `CCN(C)C1CCN(c2nc3c(C(C)C)c(-c4cn5ncnc5c(C)c4C)[nH]c3s2)CC1` [Example 298, 1-(5-(7,8-dimethyl-[1,2,4]triazolo[1,5-a]pyridin-6-yl)-6-isopropyl-4H-pyrrolo[3,2-d]thiazol-2-yl)-N-ethyl-N-methylpiperidin-4-amine]: the IC50 at human TLR9 was found to be 7410 nM; on human TLR8 it was 0.43 nM; at human TLR7, 1.56 nM.

For the molecule `Cc1c(-c2[nH]c3sc(N4CC5(CN(CC(C)C)C5)C4)nc3c2C(C)C)cn2ncnc2c1C` [Example 300, 5-(7,8-dimethyl-[1,2,4]triazolo[1,5-a]pyridin-6-yl)-2-(6-isobutyl-2,6-diazaspiro[3.3]heptan-2-yl)-6-isopropyl-4H-pyrrolo[3,2-d]thiazole], the IC50 turned out to be 10100 nM against human TLR9, 3.24 nM at human TLR8 and 10.7 nM on human TLR7.

Consider `CCc1c(-c2cc(OC)c3ncnn3c2)[nH]c2sc(C3CCC(NC4COC4)CC3)nc12` (single isomer, unassigned) [Example 272, N-(4-(6-ethyl-5-(8-methoxy-[1,2,4]triazolo[1,5-a]pyridin-6-yl)-4H-pyrrolo[3,2-d]thiazol-2-yl)cyclohexyl) oxetan-3-amine], for which the values for the half-maximal inhibitory concentration (IC50) against human TLR9, on human TLR8 and at human TLR7 were more than 50000 nM, 122 nM and 137 nM, respectively.

`CC(C)c1c(-c2cn(C)c3ncccc23)[nH]c2sc(C3CCC(NC45CC(C4)C5)CC3)nc12` (single isomer, unassigned) [Example 177, N-(4-(6-isopropyl-5-(1-methyl-1H-pyrrolo[2,3-b]pyridin-3-yl)-4H-pyrrolo[3,2-d]thiazol-2-yl)cyclohexyl)bicyclo[1.1.1]pentan-1-amine]: the IC50 is 9790 nM on human TLR9, 5.63 nM on human TLR8 and 3.23 nM at human TLR7.

Take `Cc1c(-c2[nH]c3sc(C4CCC(NCC5(S(C)(=O)=O)CC5)CC4)nc3c2C(C)C)cn2ncnc2c1C` (single isomer, unassigned) [Example 215, 4-(5-(7,8-dimethyl-[1,2,4]triazolo[1,5-a]pyridin-6-yl)-6-isopropyl-4H-pyrrolo[3,2-d]thiazol-2-yl)-N-((1-(methylsulfonyl)cyclopropyl)methyl) cyclohexan-1-amine]: the IC50 came to 15000 nM against human TLR9, 6 nM on human TLR8 and 2.3 nM at human TLR7.

As for `Cc1cc2ncnn2cc1-c1[nH]c2sc(C3CCC(N4CCCC4)CC3)nc2c1C(C)C` (single isomer, unassigned) [Example 155, 6-isopropyl-5-(7-methyl-[1,2,4]triazolo[1,5-a]pyridin-6-yl)-2-(4-(pyrrolidin-1-yl)cyclohexyl)-4H-pyrrolo[3,2-d]thiazole], the half-inhibitory concentration (IC50) is more than 50000 nM on human TLR9, 21.5 nM on human TLR8 and 41.5 nM on human TLR7.

In the case of `COC(C)(C)CNC1CCC(c2nc3c(C(C)C)c(-c4cn5ncnc5c(C)c4C)[nH]c3s2)CC1` (single isomer, unassigned) [Example 187, 4-(5-(7,8-dimethyl-[1,2,4]triazolo[1,5-a]pyridin-6-yl)-6-isopropyl-4H-pyrrolo[3,2-d]thiazol-2-yl)-N-(2-methoxy-2-methylpropyl)cyclohexan-1-amine], the IC50 against human TLR9 turned out to be 8720 nM; on human TLR8, 4.25 nM; on human TLR7 it was 10.4 nM.

Consider `COc1cc(-c2[nH]c3sc(C4CCC(N5CC6(CCOCC6)C5)CC4)nc3c2C(C)C)cn2ncnc12` (single isomer, unassigned) [Example 111, 2-(4-(6-isopropyl-5-(8-methoxy-[1,2,4]triazolo[1,5-a]pyridin-6-yl)-4H-pyrrolo[3,2-d]thiazol-2-yl)cyclohexyl)-7-oxa-2-azaspiro[3.5]nonane], for which the results for the IC50 on human TLR9, on human TLR8 and at human TLR7 were 3930 nM, 33.7 nM and 2.97 nM, respectively.

What is called IC50 is the midpoint of a concentration-inhibition curve.

The record behind these values is US20230139171A1 (SITA Information Networking Computing UK Limited, priority 2019, published 2023).
